Data reported in patent US11518996B2, “Methods and compositions for treating cancer using peptide nucleic acid-based agents” (MEMORIAL SLOAN-KETTERING CANCER CENTER, priority 2013, dated 2022).
Entries after “also recorded” stand apart in the source; their conditions may differ.

Legend:
OCM1A cells = assay: Cell viability assay (CCK8), BRAF V600E mutant uveal melanoma cells; details: increasing doses, 72 hours
Experimental: (§1) PNA compounds targeting the BRAF V600E gene mutation were tested against melanoma cell lines that are either BRAF wild type (C918) or BRAF V600E mutant (OCM1A and SK-MEL 7). C918 and OCM1A are uveal melanoma cell lines while SK-MEL 7 is a cutaneous melanoma cell line. C918 was kindly provided by Robert Folberg (University of Illinois, Chicago, Ill.). OCM1A was from Dr. William Harbour (Washington University, St. Louis, Mo.). SK-MEL 7 was from Alan Houghton (Memorial Sloan-Kettering Cancer Center, New York, N.Y.). Cells were cultured in RPMI medium supplemented with 10% FBS, 100 units/mL penicillin, and […] streptomycin and maintained at 37° C. in 5% CO2.
(§2) PNA compounds targeting the BRAF V600E gene mutation were tested against melanoma cell lines that are either BRAF wild-type (C918) or BRAF V600E mutant (OCM1A and SK-MEL 7). C918 and OCM1A are uveal melanoma cell lines while SK-MEL 7 is a cutaneous melanoma cell line. […] Cells were treated with increasing doses of several PNA derivatives for 72 hours after which the cell viability was measured and calculated relative to the untreated cells. Cells were plated in 96-well plates and treated in triplicates with the indicated concentrations of PNA derivative. Viability was assessed after 72 hours of treatment using the Cell Counting Kit 8 (CCK8) from Dojindo Molecular Technologies according to the manufacturer's instructions.

SK-MEL 7 cells = assay: Cell viability assay (CCK8), BRAF V600E mutant cutaneous melanoma cells; details: increasing doses, 72 hours
Experimental: as §1, §2

[1] = tested on: BRAF V600E mutant protein; assay: Western blot of BRAF V600E mutant protein in OCM1A cells; type: cell-based; details: 750 nM, over 72 hours
Experimental: (§3) Cells were treated for 24, 48 and 72-hour treatments with 750 nM PNA and lysed in radioimmunoprecipitation assay (RIPA) buffer supplemented with protease inhibitor cocktail tablets (Roche Diagnostics) and 1 mmol/L Na3VO4. Equal amounts of protein were loaded on 4% to 12% PAGE gels (Invitrogen). Polyvinylidene difluoride (PVDF) membranes were blocked with 5% nonfat dried milk and probed with p-MEK, MEK, p-ERK 1/2 (T202/Y204), ERK 1/2, cleaved PARP, α-tubulin (Cell Signaling Technology), BRAF (Santa Cruz Biotechnology), LC3 (Novus Biologicals) and BRAF V600E (Spring Bioscience).
(§4) FIGS. 3A-3C depict BRAF mutant and BRAF wild type protein expression in melanoma cells (C918 and OCM1A) treated with 750 nM of the PNA I-292-3 L2LP NHAc for 24, 48 or 72 hours. FIG. 3A depicts the measurement of mutant and total BRAF protein expression as measured by Western blotting in C918 and OCM1A cells. Tubulin expression was also measured as a loading control. […]
as §4, with “4A-4C” for “3A-3C”, “I-292-9 L2” for “I-292-3 L2LP”, “4A” for “3A”

[2] = tested on: total BRAF wild type protein; assay: Western blot of total BRAF protein in OCM1A cells; type: cell-based; details: 750 nM, over 72 hours
Experimental: as §3, §4
as §4, with “4A-4C” for “3A-3C”, “I-292-9 L2” for “I-292-3 L2LP”, “4A” for “3A”

[3] = tested on: total BRAF wild type protein; assay: Western blot of total BRAF protein in C918 cells; type: cell-based; details: 750 nM, over 72 hours
Experimental: as §3, §4
as §4, with “4A-4C” for “3A-3C”, “I-292-9 L2” for “I-292-3 L2LP”, “4A” for “3A”

BRAF [4] = assay: BRAF expression by Western blot in SK MEL 7 cells; type: cell-based
Experimental: as §2, §3

BRAF [5] = assay: BRAF expression by Western blot in OCM1A cells; type: cell-based
Experimental: as §2, §3

BRAF V600E mRNA [6] = assay: qRT-PCR of BRAF V600E mRNA in OCM1A cells; type: cell-based; details: 750 nM, 48 hours, RT-PCR, normalized with GAPDH
Experimental: (§5) C918 and OCM1A cells were treated with 750 nM PNA (I-292-3 L2LP) for 48 hours. Mutant BRAF mRNA expression in cells was quantified using RT-PCT. Specifically, cells were treated and then lysed using TRIzol Reagent® (Invitrogen). Reverse transcription of 1 μg of RNA was done using the SuperScript III First-Strand Synthesis System (Invitrogen). Quantitative real-time PCR (qRT-PCR) assays were performed using the 7300 Real Time PCR System (Applied Biosystems). TaqMan gene expression assays, which include gene-specific probe primer sets (Applied Biosystems), were used to detect the indicated genes and glyceraldehyde-3-phosphate dehydrogenase (GAPDH)/hypoxanthine phosphoribosyltransferase (HPRT) mRNA. The relative expression of each gene was calculated by the ΔΔCT method. Cells wild-type for BRAF (C918) as well as mutant cell lines (OCM1A and SK-Mel 7) were treated for 48 hours with 750 nM I-292-3 L2LP NHAc. According to FIG. 5A, BRAF^V600E mRNA expression was quantified using RT-PCR. Relative Quantity (RQ) values were normalized with GAPDH loading control and set relative to the mutant BRAF mRNA expression in untreated OCM1A cells (ND). […] According to FIG. 5B, Both BRAF^V600E and total BRAF mRNA expression in SK-Mel 7 cells were quantified using RT-PCR. RQ values were normalized with GAPDH and set relative to untreated cells. […]

BRAF V600E mRNA [7] = assay: qRT-PCR of BRAF V600E mRNA in SK-Mel 7 cells; type: cell-based; details: 750 nM, 48 hours, RT-PCR, normalized with GAPDH
Experimental: as §5

total BRAF mRNA = assay: qRT-PCR of total BRAF mRNA in SK-Mel 7 cells; type: cell-based; details: 750 nM, 48 hours, RT-PCR, normalized with GAPDH
Experimental: as §5

OCM1A = assay: Xenograft mouse trial, tumor size; type: in vivo, Athymic mice
Experimental: Athymic mice (3 per group) were inoculated with OCM1A. After 15 days, the size of the developing tumor was sufficient for further measurement and monitoring. The treatment group was given 50 mg/kg dosage of I-292-3 L2LP-NHAc on days 15, 17, 20 and 22. […] Moreover, one week following the last dose, the average tumor size of the treated group began to shrink by 25% over 4 days.

[8] = Toxicity in xenograft mice by weight loss and activity; type: in vivo, Athymic mice; details: OCM1A xenograft mice, 50 mg/kg doses, 28 day study
Experimental: Toxicity of the tested PNA derivative was evaluated by measuring weight loss of test animals.

| Molecule | suppression of cell viability in OCM1A cells (OCM1A cells) | suppression of cell viability in SK-MEL 7 cells (SK-MEL 7 cells) | BRAF V600E mutant protein expression in OCM1A cells [1] | total BRAF wild type protein in OCM1A cells [2] | total BRAF wild type protein in C918 cells [3] | decrease in BRAF expression, SK MEL 7 cells (BRAF [4]) [%] | decrease in BRAF expression, OCM1A cells (BRAF [5]) [%] | BRAF V600E mRNA expression in OCM1A cells (BRAF V600E mRNA [6]) | BRAF V600E mRNA expression in SK-Mel 7 cells (BRAF V600E mRNA [7]) | total BRAF mRNA expression in SK-Mel 7 cells (total BRAF mRNA) | tumor volume regression (OCM1A; OCM1A xenograft mice, 50 mg/kg IP doses (FIG. 6A legend)) [%] | average tumor size as percentage of the untreated control group (OCM1A; OCM1A xenograft, 50 mg/kg on days 15, 17, 20 and 22, day 28) [%] | shrinkage of average tumor size of the treated group (OCM1A; OCM1A xenograft, 50 mg/kg, over 4 days, one week following the last dose) [%] | animal weight and activity (toxicity, words) [8] |
| --- | --- | --- | --- | --- | --- | --- | --- | --- | --- | --- | --- | --- | --- | --- |
| CCCCCCCCCCCCCCCC(=O)NCCCC[C@H](NC(=O)[C@@H](CCCCN)NC(=O)[C@@H](CCCCN)NC(=O)[C@H](NC(=O)[C@@H](CCCCN)NC(=O)[C@@H](CCCNC(=N)N)NC(=O)[C@@H](CCCCN)NC(=O)[C@@H](CCCCN)NC(=O)[C@@H](CCCCN)NC(=O)[C@H]1CCCN1C(=O)[C@@H](CCCCN)NC(=O)CN(CCNC(=O)CN(CCNC(=O)CN(CCNC(=O)CN(CCNC(=O)CN(CCNC(=O)CN(CCNC(=O)CN(CCNC(=O)CN(CCNC(=O)CN(CCNC(=O)CN(CCNC(=O)CN(CCNC(=O)CN(CCNC(=O)CN(CCNC(=O)CN(CCNC(=O)CN(CCNC(=O)CN(CCNC(=O)CN(CCNC(=O)CN(CCNC(=O)[C@@H](CCCCN)NC(=O)[C@@H](CCCCN)NC(=O)[C@H](CCCCNC(=O)CCCCCCCCCCCCCCC)NC(C)=O)C(=O)Cn1ccc(N)nc1=O)C(=O)Cn1ccc(N)nc1=O)C(=O)Cn1cc(C)c(=O)[nH]c1=O)C(=O)Cn1ccc(N)nc1=O)C(=O)Cn1cnc2c(N)ncnc21)C(=O)Cn1cnc2c(N)ncnc21)C(=O)Cn1cnc2c(=O)[nH]c(N)nc21)C(=O)Cn1cnc2c(N)ncnc21)C(=O)Cn1cnc2c(=O)[nH]c(N)nc21)C(=O)Cn1cc(C)c(=O)[nH]c1=O)C(=O)Cn1cnc2c(N)ncnc21)C(=O)Cn1cnc2c(N)ncnc21)C(=O)Cn1cc(C)c(=O)[nH]c1=O)C(=O)Cn1cnc2c(N)ncnc21)C(=O)Cn1cnc2c(N)ncnc21)C(=O)Cn1cc(C)c(=O)[nH]c1=O)C(=O)Cn1cnc2c(N)ncnc21)C(=O)Cn1cc(C)c(=O)[nH]c1=O)C(C)C)C(N)=O [I-292-3 L2LP NHAc, AcNH-Lys(palmitoyl)-dLys-dLys-C CT CAAGAGTAATAATAT-dLys-dPro-dLys-dLys-dLysdArg-dLys-dVal-dLys-dLys-Lys(palmitoyl)-CONH2] | significant suppression of cell viability | significant suppression of cell viability | decreased expression | no significant reduction | no significant reduction | 62.4 | 40.3 | significantly decreased | decreased significantly | no observed decrease | 50 | 35 | 25 | no weight loss or changes in daily activity |
| AcNH-Lys(palmitoyl)-dLys-dLys-CCTCAAGAGTAATAATAT-dLys-dArg3-dGln-dArg2-dLys2-dArg-Gly-dTyr-dLys-dLys-Lys(palmitoyl)-CONH2 [I-292-9 L2 NHAc] | significant suppression of cell viability | significant suppression of cell viability | decreased expression | slight decrease; also recorded: slight reduction | no significant reduction |  |  |  |  |  |  |  |  |  |
